# Measurements reported in US12729218B2, “Glycolipids and use thereof as SK3 ion channel modulators” (priority 2020, dated 2026).
# How the values were obtained:
# SK3 channels = target: T1, SK3 channels (Homo sapiens, UniProt Q9UGI6); test: Whole-cell patch-clamp of SK3 currents in HEK293T cells expressing SK3 channels; format: cell-based; conditions: 10 μM; for time after addition at which the effect on SK3 current was reached / time after application at which the maximum of the activation of SK3 current was reached: currents at 0 mV
# T1 construct: expressed in transfected cells
# Description: HEK293T were obtained from American Type Culture Collection (ATCC) and cultured in Dulbecco's Modified Eagle's Medium, supplemented with 10% (v:v) fetal bovine serum (Lonza, France), 1 mM pyruvate sodium (Sigma-Aldrich, France), and 1% non-essential amino acid (Sigma-Aldrich, France). Cells were grown in a humidified atmosphere at 37° C. and with 95% air and 5% CO2. HEK293T cells were transduced as previously described to obtain stable expression of homotetramer SK3 channels.
# Experiments were performed in the whole-cell configuration of the patch-clamp technique. The patch pipettes were filled with solution contained 145 mM KCl, 1 mM MgCl2, 1 mM Mg-ATP, 0.7 mM CaCl2), 1 mM EGTA and 10 mM HEPES (PCa 6). pH was adjusted to 7.2 with KOH. The bath solution contained 140 mM NaCl, 4 mM KCl, 2 mM CaCl2), 1 mM MgCl2, 10 mM HEPES, 0.33 mM NaH2PO4, and 11.5 mM D-glucose. pH was adjusted to 7.4 with NaOH. Patch-clamp experiments and data analyses were conducted as previously described (Girault, A. et al. Current Cancer Drug Target, 2011, 11, 1111-1125). […] The amplitude of the apamin-sensitive current was obtained by subtraction of the amplitude of the current before and after application of 100 nmol/L apamin (a specific SKCa blocker).
# The capacity of the compounds 001-006 (Table 2, FIGS. 1 and 2) to modulate the activity of SK3 currents was measured using the whole cell configuration of the patch-clamp technique. For these acute tests, a concentration of 10 μM for each of the compounds was used.
# [1] = test system: Thoracic aortic segment (smooth muscle cells); test: Relaxation of phenylephrine pre-contracted, endothelium-removed thoracic aortic rings; parameters: species or system guinea pig; conditions: 10 μM added 2 times, pre-contracted with 10 μM phenylephrine, 5 minutes after additions
# Excerpt: Thoracic aortic segments were isolated from a guinea pig as already indicated by Vandier et al, (Adv Physiol Educ. 2002 December; 26(1-4):195-203). Briefly, thoracic aortic segments were isolated, cleaned of adventitia, and cut into rings. The endothelium was removed and aortic rings, were mounted on stainless steel hooks and suspended in a 30-ml jacketed tissue bath with physiological salt solution (in mm): 120 NaCl, 5.4 KCl, 1 MgCl2, 0.6 NaH2PO4, 25 NaHCO3, 5.6 glucose, 5 Na-pyruvate, and 2 CaCl2, bubbled with 95% 02-5% CO2 maintained at 37° C. and aerated with 95% 02-5% CO2. Solutions to be tested were directly added in the jacketed tissue bath generated allowed one to get the desired concentration around the aortic rings. Isometric force generation was recorded with Grass transducers (FT03; Quincy, MA) connected to an amplifier (gain 500) and analogic to digital converter (1 Hz) connected to a computer.
# Thoracic aortic segment was pre-contracted using 10 μM phenylephrine. After the steady state was reached 10 μM of compound 002 was added, two successive times, directly in the bath solution containing a physiological salt solution, maintained at 37° C. and aerated with 95% 02-5% CO2
Substance,time after addition at which the effect on SK3 current was reached (SK3 channels),relaxation effect on pre-contracted thoracic aortic segment [1],effect on SK3 channel in words (SK3 channels),time after application at which the maximum of the activation of SK3 current was reached (SK3 channels),"SK3 current (change after application of compound) (SK3 channels; acute, HEK293T expressing SK3, currents analyzed at 0 mV, pCa 6, mean ± SEM)"
Lac(OH)7-O-2-ethoxy-4-S-heneicosane [compound 006],30 s,,,,
Lac(OH)7-O-2-methoxy-3-S-heneicosane [compound 002],30 s,dose-dependent relaxation,strong activator of SK3 channel,5 min,
Lac(OH)7-O-2-methoxy-3-S-hexadecane [compound 001],,,abolished the activating effect,,−9.7% ± 5.2
Lac(OH)7-O-2-methoxy-4-S-heneicosane [compound 003],,,kept its activation capacity,5 min,
